Measurements taken from the supplement of paper PMC4862054.

Columns and labels:
Conditions in all cases: incubation time: 72 h
MCF-10A [1] = experiment: normalised response (% of control), CellTiter-Glo; higher = more viable cells (100 = DMSO, 0 = benzethonium chloride kill control)
Description: (§1)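 DSRT, 72 h incubation, CellTox Green / CellTiter-Glo readout. Signal is normalised to DMSO and benzethonium chloride controls. Value is the normalised response at the highest dose.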

BT-549 [2] = experiment: as above
Description: as §1

CAL-120 [3] = experiment: as above
Description: as §1

BT-474 [4] = experiment: as above
Description: as §1

HCC1937 [5] = experiment: as above
Description: as §1

MDA-MB-436 [6] = experiment: as above
Description: as §1

MDA-MB-231 [7] = experiment: as above
Description: as §1

CAL-85-1 [8] = experiment: as above
Description: as §1

DU-4475 [9] = experiment: as above
Description: as §1

CAL-148 [10] = experiment: as above
Description: as §1

HCC1599 [11] = experiment: as above
Description: as §1

MFM-223 [12] = experiment: as above
Description: as §1

MDA-MB-453 [13] = experiment: as above
Description: as §1

SK-BR-3 = experiment: as above
Description: as §1

CAL-51 [14] = experiment: as above
Description: as §1

HCC1143 [15] = experiment: as above
Description: as §1

MDA-MB-468 [16] = experiment: as above
Description: as §1

HDQ-P1 [17] = experiment: as above
Description: as §1

Hs578T [18] = experiment: as above
Description: as §1

MCF-10A [19] = experiment: normalised response (% of control), CellTox Green; higher = less cell death (100 = DMSO, 0 = benzethonium chloride kill control)
Procedure, shortened: (§2)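 Each value is the plate-normalised signal at one concentration of the series. Breast cancer cell lines (20 µl suspension) were incubated 72 h in 384-well plates with compound at 5 concentrations in 10-fold steps over a compound-specific 10,000-fold range. CellTox Green and then CellTiter-Glo were read, and each plate was scaled to 0.1 % DMSO (100) and a positive kill control (0).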

BT-549 [20] = experiment: as above
Procedure, shortened: as §2

CAL-120 [21] = experiment: as above
Procedure, shortened: as §2

BT-474 [22] = experiment: as above
Procedure, shortened: as §2

HCC1937 [23] = experiment: as above
Procedure, shortened: as §2

MDA-MB-436 [24] = experiment: as above
Procedure, shortened: as §2

MDA-MB-231 [25] = experiment: as above
Procedure, shortened: as §2

CAL-85-1 [26] = experiment: as above
Procedure, shortened: as §2

DU-4475 [27] = experiment: as above
Procedure, shortened: as §2

CAL-148 [28] = experiment: as above
Procedure, shortened: as §2

HCC1599 [29] = experiment: as above
Procedure, shortened: as §2

MFM-223 [30] = experiment: as above
Procedure, shortened: as §2

MDA-MB-453 [31] = experiment: as above
Procedure, shortened: as §2

CAL-51 [32] = experiment: as above
Procedure, shortened: as §2

HCC1143 [33] = experiment: as above
Procedure, shortened: as §2

MDA-MB-468 [34] = experiment: as above
Procedure, shortened: as §2

HDQ-P1 [35] = experiment: as above
Procedure, shortened: as §2

Hs578T [36] = experiment: as above
Procedure, shortened: as §2

Structure (SMILES)	normalised response (MCF-10A [1]) [%]	normalised response (BT-549 [2]) [%]	normalised response (CAL-120 [3]) [%]	normalised response (BT-474 [4]) [%]	normalised response (HCC1937 [5]) [%]	normalised response (MDA-MB-436 [6]) [%]	normalised response (MDA-MB-231 [7]) [%]	normalised response (CAL-85-1 [8]) [%]	normalised response (DU-4475 [9]) [%]	normalised response (CAL-148 [10]) [%]	normalised response (HCC1599 [11]) [%]	normalised response (MFM-223 [12]) [%]	normalised response (MDA-MB-453 [13]) [%]	normalised response (SK-BR-3) [%]	normalised response (CAL-51 [14]) [%]	normalised response (HCC1143 [15]) [%]	normalised response (MDA-MB-468 [16]) [%]	normalised response (HDQ-P1 [17]) [%]	normalised response (Hs578T [18]) [%]	normalised response (MCF-10A [19]) [%]	normalised response (BT-549 [20]) [%]	normalised response (CAL-120 [21]) [%]	normalised response (BT-474 [22]) [%]	normalised response (HCC1937 [23]) [%]	normalised response (MDA-MB-436 [24]) [%]	normalised response (MDA-MB-231 [25]) [%]	normalised response (CAL-85-1 [26]) [%]	normalised response (DU-4475 [27]) [%]	normalised response (CAL-148 [28]) [%]	normalised response (HCC1599 [29]) [%]	normalised response (MFM-223 [30]) [%]	normalised response (MDA-MB-453 [31]) [%]	normalised response (CAL-51 [32]) [%]	normalised response (HCC1143 [33]) [%]	normalised response (MDA-MB-468 [34]) [%]	normalised response (HDQ-P1 [35]) [%]	normalised response (Hs578T [36]) [%]
Cc1c(Cn2c(C)nc3c(C(=O)O)cc(N4CCOCC4)cc32)cccc1C(F)(F)F (10000 nM)	111	85.4	100	94.5	92.1	86.2	96.1	97.3	97	114	97.5	102	94.1	98.3	64.9	106	69.4	100	97.6	108	101	106	100	114	96.6	110	78.3	102	77.8	108	82.5	94.8	90.7	115	174	112	120
CC/C(=C(\c1ccc(O)cc1)c1ccc(OCCN(C)C)cc1)c1ccccc1 [4-hydroxytamoxifen] (10000 nM)	81.4	62.7	76.5	63	25.4	35	41.1	44.9	84	85	66.5	45.5	34.4	49.8	60.5	88.6	13.8	73.1	80.8	75.6	68	44.5	14.6	-22.6	74.7	7.14	34	92	73.9	82.9	91.1	46.9	103	68	-1140	81.4	–
CCCCC/C=C/C=C1/C(=O)C=C[C@@H]1C/C=C\CCCC(=O)O [15D-PGJ2] (800 nM)	108	96.5	101	95.4	102	97.4	97.8	101	100	108	97	102	106	106	71.8	107	88.7	97.1	102	95.6	105	109	106	110	107	104	94.3	94.9	102	108	106	72.9	104	110	119	82.9	124
CC(=O)OC[C@H]1O[C@@H]([S-])[C@H](OC(C)=O)[C@@H](OC(C)=O)[C@@H]1OC(C)=O.CCP(CC)CC.[Au+] [Auranofin] (2500 nM)	37.9	0.2	49.8	47.9	1.72	22.4	8.02	4.51	32.6	41.8	39.1	21.9	1.5	34.3	9.42	31.8	0.33	11.1	19.1	76.2	-11.2	68.4	48.5	1.35	84.1	13.3	-5.72	91	60.1	96.3	56.2	28.8	71	73.2	-35.6	-37	79.6
O=S(=O)(c1cccc2cnccc12)N1CCCNCC1 [Fasudil] (50000 nM)	78.3	78.9	67.1	67.5	96.5	90.2	70.1	111	86.3	96.3	96.6	88.2	79.6	57	117	83.7	93.6	89	86.7	87.7	97.4	93.2	99.3	79.6	94.4	50.6	80.6	95.4	97.8	80.3	102	101	116	99.4	90.6	–	118
Cc1cccc(-c2nn3c(c2-c2ccnc4ccc(C(N)=O)cc24)CCC3)n1 [Galunisertib] (1000 nM)	90.8	95.7	105	99.6	101	112	98.3	110	108	118	108	108	106	116	91.8	105	101	105	106	103	109	99.3	103	116	–	127	68.4	108	105	112	102	98.8	98.5	127	121	108	112
CS(=O)(=O)N1CCN(Cc2cc3nc(-c4cccc5[nH]ncc45)nc(N4CCOCC4)c3s2)CC1 [Pictilisib] (10000 nM)	18.4	25.6	34.3	50.6	32.3	43	48.8	27.8	81.4	15.6	64.9	28.2	13.4	22.2	8.84	26	26.4	19.9	31.3	79.4	102	105	47.1	91.4	116	118	50.2	–	47.1	103	56.4	92	48.2	120	155	85.4	98.8
O=C(NC[C@H](O)CO)c1ccncc1Nc1ccc(I)cc1F [Pimasertib] (10000 nM)	26.6	84.2	65.4	53	68.1	79.7	54	40.8	0.07	71.6	89.8	63	89.2	58.6	90.2	79.1	53.5	55.1	64.6	95.4	125	72.1	88.3	91	100	70.1	51.5	72.9	99.6	105	64.9	112	93.8	124	169	81.8	105
CC(C)N(CCCNC(=O)Nc1ccc(C(C)(C)C)cc1)C[C@H]1O[C@@H](n2cc(Br)c3c(N)ncnc32)[C@H](O)[C@@H]1O [SGC0946] (10000 nM)	101	92.3	102	88.1	84.2	93.8	74.7	83.1	94.3	82.6	78	81.2	69.3	73.5	94.1	91.4	70.7	87.2	101	79.5	95.8	97.4	85.2	94	75	71.9	114	98.7	93.7	81.6	89.3	91.9	101	100	115	99.1	–
